Data published in ChEMBL document CHEMBL5532639, “Heterocyclic pyrimidine derivatives as promising antibacterial agents” (Eur J Med Chem, 2023).
In brackets after ≈: the same amount, converted by molar mass. Each block holds one compound with its values, some of them ahead of it.

Key:
[1] = test system: Bacillus subtilis; experiment: Antibacterial activity against Bacillus subtilis assessed as inhibition of bacterial growth incubated for 4 to 20 hrs by resazurin based microplate reader analysis; type: functional; settings: time 4-20 hrs
[2] = test system: Staphylococcus aureus; experiment: Antibacterial activity against Staphylococcus aureus assessed as inhibition of bacterial growth incubated for 4 to 20 hrs by resazurin based microplate reader analysis; type: functional; settings: time 4-20 hrs
[3] = test system: Pseudomonas aeruginosa; experiment: Antibacterial activity against Pseudomonas aeruginosa assessed as inhibition of bacterial growth incubated for 4 to 20 hrs by resazurin based microplate reader analysis; type: functional; settings: time 4-20 hrs
[4] = test system: Escherichia coli; experiment: Antibacterial activity against Escherichia coli assessed as inhibition of bacterial growth incubated for 4 to 20 hrs by resazurin based microplate reader analysis; type: functional; settings: time 4-20 hrs
[5] = test system: Bacillus subtilis; experiment: Antibacterial activity against Bacillus subtilis assessed as bacterial growth inhibition by measuring zone of inhibition at 50 ug/ml by agar cup diffusion assay; type: functional; settings: read-out: IZ
[6] = test system: Pseudomonas aeruginosa; experiment: Antibacterial activity against Pseudomonas aeruginosa ATCC 85327 assessed as reduction in bacterial growth measured after 24 hrs by Mueller-Hinton broth assay; type: functional
[7] = test system: Staphylococcus aureus; experiment: Antibacterial activity against Staphylococcus aureus assessed as bacterial growth inhibition by measuring zone of inhibition at 50 ug/ml by agar cup diffusion assay; type: functional; settings: read-out: IZ
[8] = test system: Streptococcus pyogenes; experiment: Antibacterial activity against Streptococcus pyogenes assessed as inhibition of microbial growth by broth micro-dilution method; type: functional
[9] = test system: Staphylococcus aureus; experiment: Antibacterial activity against Staphylococcus aureus assessed as inhibition of microbial growth by broth micro-dilution method; type: functional
[10] = test system: Staphylococcus aureus; experiment: Antibacterial activity against Staphylococcus aureus ATCC 3750 assessed as reduction in bacterial growth; type: functional
[11] = test system: Escherichia coli; experiment: microbe, parasite or virus in culture; settings: ATCC 25922, 24 h
Description: Antibacterial activity against Escherichia coli ATCC 25922 assessed as reduction in bacterial growth measured after 24 hrs by Mueller-Hinton broth assay

[12] = test system: Escherichia coli; experiment: Antibacterial activity against Escherichia coli assessed as bacterial growth inhibition by measuring zone of inhibition at 50 ug/ml by agar cup diffusion assay; type: functional; settings: read-out: IZ
[13] = test system: Salmonella typhimurium; experiment: Antibacterial activity against Salmonella typhimurium DT104 assessed as bacterial growth inhibition by measuring zone of inhibition at 50 ug/ml by agar cup diffusion assay; type: functional, Salmonella enterica subsp. enterica serovar Typhimurium; settings: Salmonella enterica, read-out: IZ
[14] = test system: Staphylococcus aureus; experiment: microbe, parasite or virus in culture; settings: ATCC 25923, 24 h
Description: Antibacterial activity against Staphylococcus aureus ATCC 25923 assessed as reduction in bacterial growth measured after 24 hrs by Mueller-Hinton broth assay

[15] = test system: Bacillus subtilis; experiment: Antibacterial activity against Bacillus subtilis ATCC 465 assessed as reduction in bacterial growth measured after 24 hrs by Mueller-Hinton broth assay; type: functional
[16] = test system: Bacillus subtilis; experiment: Antibacterial activity against Bacillus subtilis 6633 assessed as reduction in bacterial growth; type: functional
[17] = test system: Salmonella typhimurium; experiment: Antibacterial activity against Salmonella typhimurium DT104 assessed as reduction in bacterial growth; type: functional, Salmonella enterica subsp. enterica serovar Typhimurium; settings: Salmonella enterica
[18] = test system: Escherichia coli; experiment: Antibacterial activity against Escherichia coli ATCC 25922 assessed as bacterial growth inhibition; type: functional
[19] = test system: Escherichia coli; experiment: Antibacterial activity against Escherichia coli assessed as inhibition of microbial growth by broth micro-dilution method; type: functional
[20] = test system: Pseudomonas aeruginosa; experiment: Antibacterial activity against Pseudomonas aeruginosa assessed as inhibition of microbial growth by broth micro-dilution method; type: functional
[21] = test system: Klebsiella pneumoniae; experiment: Antibacterial activity against Klebsiella pneumoniae assessed as reduction in bacterial growth incubated for 16 to 20 hrs by Mueller-Hinton broth based two-fold serial dilution method; type: functional; settings: time 16-20 hrs
[22] = test system: Escherichia coli; experiment: Antibacterial activity against Escherichia coli assessed as reduction in bacterial growth incubated for 16 to 20 hrs by Mueller-Hinton broth based two-fold serial dilution method; type: functional; settings: time 16-20 hrs
[23] = test system: Staphylococcus aureus; experiment: Antibacterial activity against Staphylococcus aureus assessed as reduction in bacterial growth incubated for 16 to 20 hrs by Mueller-Hinton broth based two-fold serial dilution method; type: functional; settings: time 16-20 hrs
[24] = test system: Pseudomonas aeruginosa; experiment: Antibacterial activity against Pseudomonas aeruginosa assessed as reduction in bacterial growth incubated for 24 hrs by broth microdilution method; type: functional
[25] = test system: Streptococcus pyogenes; experiment: Antibacterial activity against Streptococcus pyogenes assessed as reduction in microbial growth incubated for 24 hrs by broth micro-dilution method; type: functional
[26] = test system: Staphylococcus xylosus; experiment: Antibacterial activity against Staphylococcus xylosus assessed as reduction in bacterial growth; type: functional
[27] = test system: Acinetobacter sp.; experiment: Antibacterial activity against Acinetobacter sp.; type: functional
[28] = test system: Micrococcus sp.; experiment: Antibacterial activity against Micrococcus sp.; type: functional
[29] = test system: Micrococcus luteus; experiment: Antibacterial activity against Micrococcus luteus assessed as bacterial growth inhibition by paper disc diffusion assay; type: functional
[30] = test system: Corynebacterium xerosis; experiment: Antibacterial activity against Corynebacterium xerosis; type: functional
[31] = test system: Corynebacterium glutamicum; experiment: Antibacterial activity against Corynebacterium glutamicum ATCC 13032 cultured in MHB medium assessed as no bacterial growth incubated at 20 degC for 24 hrs by microdilution susceptibility test; type: functional
[32] = test system: Staphylococcus epidermidis; experiment: Antibacterial activity against Staphylococcus epidermidis assessed as reduction in bacterial growth measured after 24 hrs by broth microdilution method; type: functional
[33] = test system: Corynebacterium glutamicum; experiment: Antibacterial activity against Corynebacterium glutamicum; type: functional
[34] = test system: Corynebacterium sp.; experiment: Antibacterial activity against Corynebacterium sp.; type: functional
[35] = test system: Alcaligenes faecalis; experiment: Antibacterial activity against Alcaligenes faecalis; type: functional
[36] = test system: Staphylococcus epidermidis; experiment: Antibacterial activity against Staphylococcus epidermidis assessed as reduction in microbial growth after 24 hrs by CLSI based microdilution method; type: functional
[37] = test system: Staphylococcus haemolyticus; experiment: Antibacterial activity against Staphylococcus haemolyticus clinical isolates assessed as bacterial growth inhibition measured after 16 to 24 hrs by broth microdilution assay; type: functional; settings: time 16-24 hrs
[38] = test system: Moraxella catarrhalis; experiment: Antibacterial activity against Moraxella catarrhalis assessed as reduction in bacterial growth by broth microdilution method; type: functional
[39] = test system: Staphylococcus hominis; experiment: Antibacterial activity against Staphylococcus hominis; type: functional
[40] = test system: Micrococcus luteus; experiment: Antibacterial activity against Micrococcus luteus assessed as reduction in microbial growth; type: functional
[41] = test system: Arcanobacterium haemolyticum; experiment: Antibacterial activity against Arcanobacterium haemolyticum; type: functional
[42] = test system: Staphylococcus cohnii; experiment: Antibacterial activity against Staphylococcus cohnii; type: functional
[43] = test system: Escherichia coli; experiment: Antibacterial activity against Escherichia coli assessed as zone of inhibition at 50 microg/ml by cup plate analysis; type: functional; settings: read-out: IZ
[44] = test system: Proteus vulgaris; experiment: Antibacterial activity against Proteus vulgaris assessed as zone of inhibition at 50 microg/ml by cup plate analysis; type: functional; settings: read-out: IZ
[45] = test system: Staphylococcus aureus; experiment: Antibacterial activity against Staphylococcus aureus assessed as bacterial growth inhibition incubated for 24 hrs by CLSI protocol based Mueller-Hinton broth assay; type: functional
[46] = test system: Bacillus pumilus; experiment: Antibacterial activity against Bacillus pumilus assessed as zone of inhibition at 50 microg/ml by cup plate analysis; type: functional; settings: read-out: IZ
[47] = test system: Bacillus subtilis; experiment: Antibacterial activity against Bacillus subtilis assessed as zone of inhibition at 50 microg/ml by cup plate analysis; type: functional; settings: read-out: IZ
[48] = test system: Enterococcus raffinosus; experiment: Antibacterial activity against Enterococcus raffinosus assessed as bacterial growth inhibition incubated for 24 hrs by CLSI protocol based Mueller-Hinton broth assay; type: functional
[49] = test system: Bacillus subtilis; experiment: Antimicrobial activity against Bacillus subtilis assessed as diameter of inhibition zone incubated for 24 hrs by well diffusion assay; type: functional
[50] = test system: Pseudomonas aeruginosa; experiment: Antimicrobial activity against Pseudomonas aeruginosa assessed as diameter of inhibition zone incubated for 24 hrs by well diffusion assay; type: functional
[51] = test system: Micrococcus luteus; experiment: Antimicrobial activity against Micrococcus luteus assessed as diameter of inhibition zone incubated for 24 hrs by well diffusion assay; type: functional

Compound: CC1(C)S[C@@H]2[C@H](NC(=O)[C@H](N)c3ccc(O)cc3)C(=O)N2[C@H]1C(=O)O [AMOXICILLIN]
MIC [1]: 0.39 µg/mL (≈ 1.07 µM)
MIC [2]: 0.39 µg/mL (≈ 1.07 µM)
MIC [3]: 1 µg/mL (≈ 2.74 µM)
MIC [4]: 0.5 µg/mL (≈ 1.37 µM)

Compound: O=C(N[C@H](CO)[C@H](O)c1ccc([N+](=O)[O-])cc1)C(Cl)Cl [CHLORAMPHENICOL]
zone of inhibition at 50 µg/mL [5]: 20 mm
MIC [6]: 256 µg/mL (≈ 792 µM)
zone of inhibition at 50 µg/mL [7]: 25 mm
MIC [8]: 50 µg/mL
MIC [9]: 50 µg/mL
MIC [10]: 5 µg/mL (≈ 15.5 µM)
MIC [11]: 4 µg/mL (≈ 12.4 µM)
zone of inhibition at 50 µg/mL [12]: 18 mm
zone of inhibition at 50 µg/mL [13]: 24 mm
MIC [14]: 8 µg/mL (≈ 24.8 µM)
MIC [15]: 4 µg/mL (≈ 12.4 µM)
MIC [16]: 6 µg/mL (≈ 18.6 µM)
MIC [17]: 6 µg/mL (≈ 18.6 µM)
MIC [18]: 4 µg/mL (≈ 12.4 µM)
MIC [19]: 50 µg/mL
MIC [20]: 50 µg/mL

Compound: Clc1ccc(C(Cc2cccc(Cl)c2)c2c(Cl)nc(N3CCNCC3)nc2Cl)cc1 (configuration not stated)
MIC [26]: 100 µg/mL (≈ 207 µM)
MIC [27]: 30 µg/mL (≈ 62.2 µM)
MIC [28]: 75 µg/mL (≈ 156 µM)
MIC [29]: 75 µg/mL (≈ 156 µM)
MIC [30]: 30 µg/mL (≈ 62.2 µM)
MIC [31]: 50 µg/mL (≈ 104 µM)
MIC [32]: 75 µg/mL (≈ 156 µM)
MIC [33]: 50 µg/mL (≈ 104 µM)
MIC [34]: 75 µg/mL (≈ 156 µM)
MIC [35]: > 500 µg/mL
MIC [36]: 75 µg/mL
MIC [37]: 50 µg/mL (≈ 104 µM)
MIC [38]: 50 µg/mL (≈ 104 µM)
MIC [39]: 75 µg/mL (≈ 156 µM)
MIC [40]: 100 µg/mL
MIC [41]: 10 µg/mL (≈ 20.7 µM)
MIC [42]: 75 µg/mL (≈ 156 µM)

Compound: CC1(C)S[C@@H]2[C@H](NC(=O)Cc3ccccc3)C(=O)N2[C@H]1C(=O)O [PENICILLIN G]
zone of inhibition at 50 µg/mL [43]: 26 mm
zone of inhibition at 50 µg/mL [44]: 28 mm
MIC [10]: 6 µg/mL (≈ 17.9 µM)
MIC [45]: 24.4 µg/mL (≈ 73 µM)
zone of inhibition at 50 µg/mL [46]: 29 mm
zone of inhibition at 50 µg/mL [47]: 25 mm
MIC [16]: 22 µg/mL (≈ 65.8 µM)
MIC [17]: 5 µg/mL (≈ 15 µM)
MIC [18]: 5 µg/mL (≈ 15 µM)
MIC [48]: 93.5 µg/mL (≈ 280 µM)

Compound: CN(C)c1ccc(-c2cc(-c3ccsc3)nc(N)n2)cc1
zone of inhibition at 50 µg/mL [43]: 11 mm
zone of inhibition at 50 µg/mL [44]: 12 mm
zone of inhibition at 50 µg/mL [46]: 12 mm
zone of inhibition at 50 µg/mL [47]: 15 mm

Compound: Oc1ncnc(O)c1/N=N/c1ccc(/N=N/c2ccccc2)cc1
inhibition zone (IZ) [49]: 13 mm
inhibition zone (IZ) [50]: 12 mm
inhibition zone (IZ) [51]: 18 mm

Continued, in another order:

MIC [21]: 12.5 µg/mL (≈ 23.2 µM)
MIC [22]: 12.5 µg/mL (≈ 23.2 µM)
MIC [23]: 25 µg/mL (≈ 46.4 µM)
MIC [24]: 25 µg/mL (≈ 46.4 µM)
MIC [25]: 12.5 µg/mL
Compound: Nc1cccc(/C=N/Nc2nc3nc(-c4ccc(Cl)cc4)c(-c4nc5ccccc5s4)c(N)c3c(=O)[nH]2)c1

MIC [1]: 12.5 µg/mL (≈ 24.7 µM)
MIC [2]: 12.5 µg/mL (≈ 24.7 µM)
MIC [3]: 50 µg/mL (≈ 98.7 µM)
MIC [4]: 50 µg/mL (≈ 98.7 µM)
Compound: CCCCCCCc1ccc(C(=O)Nc2nc(C)nc3nc(-c4ccccc4)cc(C(F)(F)F)c23)cc1

MIC [26]: 20 µg/mL (≈ 50.2 µM)
MIC [27]: > 1000 µg/mL
MIC [28]: 30 µg/mL (≈ 75.4 µM)
MIC [29]: 20 µg/mL (≈ 50.2 µM)
MIC [30]: 20 µg/mL (≈ 50.2 µM)
MIC [31]: 30 µg/mL (≈ 75.4 µM)
MIC [32]: > 100 µg/mL
MIC [33]: 30 µg/mL (≈ 75.4 µM)
MIC [34]: 100 µg/mL (≈ 251 µM)
MIC [35]: 1000 µg/mL (≈ 2510 µM)
MIC [36]: 100 µg/mL
MIC [38]: 300 µg/mL (≈ 754 µM)
MIC [39]: 100 µg/mL (≈ 251 µM)
MIC [40]: 20 µg/mL
MIC [42]: 100 µg/mL (≈ 251 µM)
Compound: Clc1ccc(C(Cc2ccccc2)c2c(Cl)nc(Cl)nc2Cl)cc1 (configuration not stated)
MIC [37]: 100 µg/mL (≈ 251 µM)
MIC [41]: 10 µg/mL (≈ 25.1 µM)

MIC [45]: 3.8 µg/mL (≈ 10.4 µM)
MIC [48]: 12.3 µg/mL (≈ 33.6 µM)
Compound: Nc1n[nH]c2nc(-c3ccccc3)nc(-c3ccc(Br)cc3)c12

MIC [21]: 25 µg/mL (≈ 46.1 µM)
MIC [22]: 25 µg/mL (≈ 46.1 µM)
MIC [23]: 12.5 µg/mL (≈ 23.1 µM)
MIC [24]: 25 µg/mL (≈ 46.1 µM)
MIC [25]: 12.5 µg/mL
Compound: Nc1c(-c2nc3ccccc3s2)c(-c2ccc(Cl)cc2)nc2nc(N/N=C/c3cccc(F)c3)[nH]c(=O)c12
